According to patent US20230293560A1, “METHOD FOR MODULATING THE BLADDER MICROBIOME TO IMPROVE BLADDER HEALTH” (Kimberly-Clark Worldwide, Inc., priority 2020, published 2023):

What was measured:
[1] = tested on: E. faecalis; assay: Plate assay screening of prebiotics; type: cell-based, Enterococcus faecalis; design: key: ++: if growth and fermentation was equal to or greater than the positive control; +: if growth and fermentation was less than the positive control; +: if weak or no growth or fermentation; +^2: Bacteria demonstrated growth but no fermentation on the prebiotic; conditions: E. faecalis KC16-7171-3, Bladder; MRS-based agar with glucose substituted by prebiotic
Experimental: (§1) Most of the prebiotic compounds were initially tested in a high throughput assay screening process, described further in the Test Methods section herein, but three prebiotics (as noted in Table 3) were tested using a plate assay screening process as described in the Test Methods section herein. The prebiotics were tested against the commensal bacterial species of Lactobacillus crispatus, Lactobacillus gasseri, and Lactobacillus jensenii and against the pathogenic bacterial species of Streptococcus anginosus and Enterococcus faecalis as shown in Table 2. The bacterial species were taken from different sources, listed as culture collection, bladder, and vagina. […]
(§2) • 1. […] Bacteria were enumerated on each agar and color changes were recorded. […] Small colonies are counted as S. anginosus and large colonies are counted as L. crispatus. • 10. […]

[2] = tested on: L. crispatus; assay: Plate assay screening of prebiotics; type: cell-based, Lactobacillus crispatus; design: key: ++: if growth and fermentation was equal to or greater than the positive control; +: if growth and fermentation was less than the positive control; +: if weak or no growth or fermentation; +^2: Bacteria demonstrated growth but no fermentation on the prebiotic; conditions: MRS-based agar with glucose substituted by prebiotic
Experimental: as §1, §2

[3] = tested on: S. anginosus; assay: Plate assay screening of prebiotics; type: cell-based, Streptococcus anginosus; design: key: ++: if growth and fermentation was equal to or greater than the positive control; +: if growth and fermentation was less than the positive control; +: if weak or no growth or fermentation; +^2: Bacteria demonstrated growth but no fermentation on the prebiotic; conditions: S. anginosus KC18-1131-3B, Bladder; MRS-based agar with glucose substituted by prebiotic
Experimental: as §1, §2

[4] = tested on: L. jensenii; assay: Plate assay screening of prebiotics; type: cell-based, Lactobacillus jensenii; design: key: ++: if growth and fermentation was equal to or greater than the positive control; +: if growth and fermentation was less than the positive control; +: if weak or no growth or fermentation; +^2: Bacteria demonstrated growth but no fermentation on the prebiotic; conditions: L. jensenii KC17-4297-18, Bladder; MRS-based agar with glucose substituted by prebiotic
Experimental: as §1, §2

[5] = tested on: E. coli; assay: Additional prebiotic screening against E. coli (plate assay); type: cell-based, Escherichia coli
Excerpt: Additional screening of three prebiotic compounds of alpha-methyl-D-glucoside, isomaltulose, and alpha cyclodextrin was completed against pathogenic bacteria species Escherichia coli from both bladder and vaginal sources, as shown in Table 4. The growth of the bacterial species for this additional screening process against E. coli was not compared to growth of a control as in the screening process documented in Table 3, but was documented based on growth or no growth for the number of samples tested.
• 1. An in house bacterial agar was created based on MRS agar (Kaplan and Hutkins, 2000) where the glucose is substituted for the prebiotic to be tested (either dextran MW ˜6,000, alpha-cyclodextrin, glucomannan, or pectin), bromocresol purple was included as a pH indicator. • 2. Bacteria were enumerated on each agar and color changes were recorded. Method for Competition Assay (Modified from “In Vitro Evaluation of Nutrients that Selectively Confer a Competitive Advantage to Lactobacilli” Vongsa et al, Beneficial Microbes 2016) • 1. Create 2% w/v stock of prebiotic or positive control (glucose/dextrose) as described above. • 2. From a freezer stock subculture the bacteria twice into De Man, Rogosa and Sharpe (MRS) broth (BD Difco, Becton Dickinson, Franklin Lakes, NJ), 37° C., stationary, anaerobic, overnight. • 3. From the last subculture, plate onto an MRS agar plate for L. crispatus KC18-1173-1 or blood agar for S. anginosus KC18-1131-3B, grow 37° C., stationary, anaerobic, overnight. • 4. Create a bacterial suspension by using a sterile tipped swab to transfer colonies of bacteria into a PBS suspension blank to a 2 MacFarland for both species. • 5. Enumerate the starting culture. • 6. Add 9.8 mL of prebiotic media into a 15 mL conical tube. • 7. Add 100 μL of the diluted bacteria to the media, incubate at 37° C., anaerobic, 48 hours. • 8. Harvest 100 μL from the tube containing the prebiotic and plate onto MRS agar and tryptic soy agar (TSA). • 9. […] Small colonies are counted as S. anginosus and large colonies are counted as L. crispatus. • 10. […]

[6] = tested on: commensal and pathogenic bacterial species; assay: Prebiotic screening, summary in words across species; type: cell-based; conditions: commensal (L. crispatus, L. gasseri, L. jensenii) and pathogenic (S. anginosus, E. faecalis) species
Summary of the method: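 Prebiotics at 2% w/v stock in API 50 CHL medium with bromocresol purple, inoculated with bacteria and read every 20 min for 24-48 h at OD430/590 (fermentation) and OD660 (growth), scored against a glucose control. Some tested on MRS-based agar with the prebiotic in place of glucose; competition assay with L. crispatus and S. anginosus incubated 48 h anaerobically at 37 °C, then enumerated on MRS and TSA.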

[7] = E. coli KC17-3970-4, Vagina, of 1 tested

OC[C@H]1O[C@@H]2O[C@H]3[C@H](O)[C@@H](O)[C@@H](O[C@H]4[C@H](O)[C@@H](O)[C@@H](O[C@H]5[C@H](O)[C@@H](O)[C@@H](O[C@H]6[C@H](O)[C@@H](O)[C@@H](O[C@H]7[C@H](O)[C@@H](O)[C@@H](O[C@H]1[C@H](O)[C@H]2O)O[C@@H]7CO)O[C@@H]6CO)O[C@@H]5CO)O[C@@H]4CO)O[C@@H]3CO [Alpha Cyclodextrin, Alpha-Cyclodextrin]
growth and fermentation vs positive control, Ef-2 (plate assay) [1]: + | growth and fermentation vs positive control, Lc-2 (plate assay) ([2]; L. crispatus KC16-7134-3C, Bladder): + | growth and fermentation vs positive control, Lc-3 (plate assay) ([2]; L. crispatus KC18-1173-1, Bladder): +^2 | growth and fermentation vs positive control, Sa-2 (plate assay) [3]: + | growth and fermentation vs positive control, Lj-1 (plate assay) [4]: + | # fermented, Ec-3 (plate assay) [5, 7]: 0 | # grew, Ec-3 (plate assay) [5, 7]: 1 | growth of E. coli Ec-3, in words ([5]; the one E. coli species tested (Ec-3), vaginal source): did grow | overall outcome of the screening of Table 3, in words [6]: growing at least some of the commensal bacterial species and either having less growth than the positive control or almost no growth of the pathogenic bacterial species
